Laboratory results published in patent US8076487B2, “Pyridone derivative and herbicide” (Kumiai Chemical Industry Co., Ltd., priority 2006, dated 2011).

Legend:
Format in all cases: in vivo
[1] = system: early watergrass (Echinochloa oryzicola Vasing); assay: Test Example 1: herbicidal effect by soil application to paddy field; settings: paddy field soil application; active ingredient 1,000 g per 1 hectare; wettable powder added dropwise to water surface the day after sowing; examined on the 21st day after application
Summary of the method: (§1)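 Under greenhouse conditions, seeds sown on puddled paddy soil in 100 cm2 pots under 3 cm of standing water received the test compound; injury was assessed with a standard scoring scheme three weeks (day 21) after treatment.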

[2] = system: heartshape false pickerelweed (Monochoria vaginalis (Burm.f.) C.Presl); assay: as above; settings: paddy field soil application; active ingredient 1,000 g per 1 hectare; wettable powder added dropwise to water surface the day after sowing; examined on the 21st day after application
Summary of the method: as §1

[3] = system: Japanese bulrush (Scirpus juncoides Roxb.); assay: as above; settings: paddy field soil application; active ingredient 1,000 g per 1 hectare; wettable powder added dropwise to water surface the day after sowing; examined on the 21st day after application
Summary of the method: as §1

[4] = system: barnyardgrass (Echinochloa crus-galli (L.) P. Beauv. var. crus-galli); assay: Test Example 3: herbicidal effect by application to upland field (foliage treatment); settings: 14th day after application; for herbicidal effect, Barnyardgrass: foliage treatment, 1,000 g active ingredient per 1 hectare, greenhouse; for herbicidal effect (index), Barnyardgrass: foliage treatment, plants grown two weeks, 1,000 g active ingredient per hectare
Summary of the method: (§2)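 Two weeks after sowing in field soil under greenhouse conditions, seedlings receive a top-down foliar spray of wettable powder diluted in water at an active-ingredient rate of 1,000 g per hectare. Effect is rated against a standard 14 days post-treatment.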

[5] = system: green foxtail (Setaria viridis (L.) P. Beauv.); assay: as above; settings: 14th day after application; for herbicidal effect, Green Foxtail: foliage treatment, 1,000 g active ingredient per 1 hectare, greenhouse; for herbicidal effect (index), Green Foxtail: foliage treatment, plants grown two weeks, 1,000 g active ingredient per hectare
Summary of the method: as §2

[6] = system: slender amaranth (Amaranthus viridis L.); assay: as above; settings: 14th day after application; for herbicidal effect, Slender Amaranth: foliage treatment, 1,000 g active ingredient per 1 hectare, greenhouse; for herbicidal effect (index), Slender Amaranth: foliage treatment, plants grown two weeks, 1,000 g active ingredient per hectare
Summary of the method: as §2

[7] = system: velvetleaf (Abutilon theophrasti medicus); assay: as above; settings: 14th day after application; for herbicidal effect, Velvetleaf: foliage treatment, 1,000 g active ingredient per 1 hectare, greenhouse; for herbicidal effect (index), Velvetleaf: foliage treatment, plants grown two weeks, 1,000 g active ingredient per hectare
Summary of the method: as §2

[8] = system: barnyardgrass (Echinochloa crus-galli (L.) P. Beauv. var. crus-galli); assay: Test Example 2: herbicidal effect by soil application to upland field; settings: soil surface spray, upland field soil, 1,000 g active ingredient per hectare, 21st day after application
Summary of the method: (§3)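 Soil-applied wettable powder, 1,000 g a.i./ha, sprayed after sowing onto covered field soil. Effect rated on a standard scale 21 days later in a greenhouse.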

[9] = system: green foxtail (Setaria viridis (L.) P. Beauv.); assay: as above; settings: soil surface spray, upland field soil, 1,000 g active ingredient per hectare, 21st day after application
Summary of the method: as §3

[10] = system: slender amaranth (Amaranthus viridis L.); assay: as above; settings: soil surface spray, upland field soil, 1,000 g active ingredient per hectare, 21st day after application
Summary of the method: as §3

[11] = system: velvetleaf (Abutilon theophrasti medicus); assay: as above; settings: soil surface spray, upland field soil, 1,000 g active ingredient per hectare, 21st day after application
Summary of the method: as §3

SMILES	herbicidal effect, Echinochloa oryzicola Vasing [1]	herbicidal effect, Monochoria vaginalis (Burm. f.) C. Presl [2]	herbicidal effect, Scirpus juncoides Roxb. [3]	herbicidal effect, Barnyardgrass [4]	herbicidal effect, Green Foxtail [5]	herbicidal effect, Slender Amaranth [6]	herbicidal effect, Velvetleaf [7]	herbicidal effect (index), Barnyardgrass [8]	herbicidal effect (index), Green Foxtail [9]	herbicidal effect (index), Slender Amaranth [10]	herbicidal effect (index), Velvetleaf [11]	herbicidal effect (index), Barnyardgrass [4]	herbicidal effect (index), Green Foxtail [5]	herbicidal effect (index), Slender Amaranth [6]	herbicidal effect (index), Velvetleaf [7]
COC(Cn1c(C(F)(F)F)ccc(C(=O)C2=C(O)C3CCC(C3)C2=O)c1=O)OC (stereo not shown) [III-25]	5 (90% or more of herbicidal effect and crop phytotoxicity)	5 (90% or more of herbicidal effect and crop phytotoxicity)	5 (90% or more of herbicidal effect and crop phytotoxicity)	5 (90% or more of herbicidal effect and crop phytotoxicity)	5 (90% or more of herbicidal effect and crop phytotoxicity)	5 (90% or more of herbicidal effect and crop phytotoxicity)	5 (90% or more of herbicidal effect and crop phytotoxicity)	5 (90% or more of herbicidal effect and crop phytotoxicity)	5 (90% or more of herbicidal effect and crop phytotoxicity)	5 (90% or more of herbicidal effect and crop phytotoxicity)	5 (90% or more of herbicidal effect and crop phytotoxicity)				
O=C1CCCC(O)=C1C(=O)c1ccc(C(F)(F)F)n(CSC2CCCC2)c1=O [I-59]	5 (90% or more of herbicidal effect and crop phytotoxicity)	5 (90% or more of herbicidal effect and crop phytotoxicity)	5 (90% or more of herbicidal effect and crop phytotoxicity)					5 (90% or more of herbicidal effect and crop phytotoxicity)	4 (70 to less than 90% of herbicidal effect and crop phytotoxicity)	5 (90% or more of herbicidal effect and crop phytotoxicity)	5 (90% or more of herbicidal effect and crop phytotoxicity)	5 (90% or more of herbicidal effect and crop phytotoxicity)	5 (90% or more of herbicidal effect and crop phytotoxicity)	5 (90% or more of herbicidal effect and crop phytotoxicity)	5 (90% or more of herbicidal effect and crop phytotoxicity)
O=C1CCCC(O)=C1C(=O)c1ccc(C(F)(F)F)n(-c2cccc(F)c2)c1=O [I-92]	5 (90% or more of herbicidal effect and crop phytotoxicity)	5 (90% or more of herbicidal effect and crop phytotoxicity)	5 (90% or more of herbicidal effect and crop phytotoxicity)					5 (90% or more of herbicidal effect and crop phytotoxicity)	5 (90% or more of herbicidal effect and crop phytotoxicity)	5 (90% or more of herbicidal effect and crop phytotoxicity)	5 (90% or more of herbicidal effect and crop phytotoxicity)	5 (90% or more of herbicidal effect and crop phytotoxicity)	5 (90% or more of herbicidal effect and crop phytotoxicity)	5 (90% or more of herbicidal effect and crop phytotoxicity)	5 (90% or more of herbicidal effect and crop phytotoxicity)
CCCS(=O)(=O)Oc1c(C(=O)c2ccc(C(F)(F)F)n(C3CC3)c2=O)cnn1C [IV-19]	5 (90% or more of herbicidal effect and crop phytotoxicity)	5 (90% or more of herbicidal effect and crop phytotoxicity)	5 (90% or more of herbicidal effect and crop phytotoxicity)	5 (90% or more of herbicidal effect and crop phytotoxicity)	5 (90% or more of herbicidal effect and crop phytotoxicity)	5 (90% or more of herbicidal effect and crop phytotoxicity)	5 (90% or more of herbicidal effect and crop phytotoxicity)	5 (90% or more of herbicidal effect and crop phytotoxicity)	5 (90% or more of herbicidal effect and crop phytotoxicity)	5 (90% or more of herbicidal effect and crop phytotoxicity)	5 (90% or more of herbicidal effect and crop phytotoxicity)				
Cn1ncc(C(=O)c2ccc(C(F)(F)F)n(CC3OCCO3)c2=O)c1O [IV-119]	5 (90% or more of herbicidal effect and crop phytotoxicity)	5 (90% or more of herbicidal effect and crop phytotoxicity)	5 (90% or more of herbicidal effect and crop phytotoxicity)	5 (90% or more of herbicidal effect and crop phytotoxicity)	4 (70 to less than 90% of herbicidal effect and crop phytotoxicity)	5 (90% or more of herbicidal effect and crop phytotoxicity)	4 (70 to less than 90% of herbicidal effect and crop phytotoxicity)	5 (90% or more of herbicidal effect and crop phytotoxicity)	5 (90% or more of herbicidal effect and crop phytotoxicity)	5 (90% or more of herbicidal effect and crop phytotoxicity)	5 (90% or more of herbicidal effect and crop phytotoxicity)				
CCCCCCCC(=O)Oc1c(C(=O)c2ccc(C(F)(F)F)n(CC3CCCO3)c2=O)cnn1C (stereo not shown) [IV-130]	5 (90% or more of herbicidal effect and crop phytotoxicity)	5 (90% or more of herbicidal effect and crop phytotoxicity)	5 (90% or more of herbicidal effect and crop phytotoxicity)	5 (90% or more of herbicidal effect and crop phytotoxicity)	4 (70 to less than 90% of herbicidal effect and crop phytotoxicity)	5 (90% or more of herbicidal effect and crop phytotoxicity)	4 (70 to less than 90% of herbicidal effect and crop phytotoxicity)	4 (70 to less than 90% of herbicidal effect and crop phytotoxicity)	4 (70 to less than 90% of herbicidal effect and crop phytotoxicity)	5 (90% or more of herbicidal effect and crop phytotoxicity)	5 (90% or more of herbicidal effect and crop phytotoxicity)				
O=C1CCCC(O)=C1C(=O)c1ccc(C(F)(F)F)n(-c2ccc(F)c(F)c2)c1=O [I-105]	5 (90% or more of herbicidal effect and crop phytotoxicity)	5 (90% or more of herbicidal effect and crop phytotoxicity)	5 (90% or more of herbicidal effect and crop phytotoxicity)					5 (90% or more of herbicidal effect and crop phytotoxicity)	5 (90% or more of herbicidal effect and crop phytotoxicity)	5 (90% or more of herbicidal effect and crop phytotoxicity)	5 (90% or more of herbicidal effect and crop phytotoxicity)	5 (90% or more of herbicidal effect and crop phytotoxicity)	5 (90% or more of herbicidal effect and crop phytotoxicity)	5 (90% or more of herbicidal effect and crop phytotoxicity)	5 (90% or more of herbicidal effect and crop phytotoxicity)
CS(=O)(=O)c1cccc(-n2c(C(F)(F)F)ccc(C(=O)C3=C(O)CCCC3=O)c2=O)c1 [I-82]	5 (90% or more of herbicidal effect and crop phytotoxicity)	5 (90% or more of herbicidal effect and crop phytotoxicity)	5 (90% or more of herbicidal effect and crop phytotoxicity)					5 (90% or more of herbicidal effect and crop phytotoxicity)	5 (90% or more of herbicidal effect and crop phytotoxicity)	5 (90% or more of herbicidal effect and crop phytotoxicity)	5 (90% or more of herbicidal effect and crop phytotoxicity)	5 (90% or more of herbicidal effect and crop phytotoxicity)	5 (90% or more of herbicidal effect and crop phytotoxicity)	5 (90% or more of herbicidal effect and crop phytotoxicity)	5 (90% or more of herbicidal effect and crop phytotoxicity)
